Laboratory results from patent publication US20030199692A1, “Propanoic acid derivatives that inhibit the binding of integrins to their receptors” (priority 1999, published 2003).

target: T1, α4β1 integrin (Homo sapiens, UniProt P05556+P13612); test: Inhibition of adhesion of calcein AM-labeled Ramos cells to CS1 (fibronectin) peptide-conjugated ovalbumin; type: cell-based; details: Ramos; Table 2; compound at a concentration of 100 μM; read-out: % A (percent inhibition of cell adhesion)
T1 construct: endogenous in cells; host or cells: Ramos cells
Description: The ability of compounds of the present invention to inhibit binding is determined by a procedure in which a 26-amino acid peptide containing the CS1 sequence of fibronectin with an N-terminal Cys ([…]) was coupled to maleimide activated ovalbumin. Bovine serum albumin (BSA) and CS1 conjugated ovalbumin were coated onto 96-well polystyrene plates at 0.5 mg/ml in TBS (50 mM Tris, pH 7.5; 150 mM NaCl) at 4° C. for 16 hours. The plates were washed three times with TBS and blocked with TBS containing 3% BSA at room temperature for 4 hours. Blocked plates were washed three times in binding buffer (TBS; 1 mM MgCl2; 1 mM CaCl2; 1 mM MnCl2) prior to assay. Ramos cells fluorescently labeled with calcein AM were resuspended in binding buffer (10^7 cells/ml) and diluted 1:2 with same buffer with or without compound. The cells were added immediately to the wells (2.5×10^5 cells/well) and incubated for 30 minutes at 37° C. Following three washes with binding buffer, adherent cells were lysed and quantitated using a fluorometer. IC50 is defined as the dose required to give 50% inhibition. MS in Table 3 stands for Mass Spec. nd stands for not determined in the Tables. A stands for inhibition in Table 2, and the percent inhibition indicates the inhibition of cell adhesion when compound is included in the assay at a concentration of 100 μM. The lower the IC50 value and the greater the percentage of inhibition, the more efficient the compound is at prevention of cell adhesion.

T1 sequence (P13612 34-1032): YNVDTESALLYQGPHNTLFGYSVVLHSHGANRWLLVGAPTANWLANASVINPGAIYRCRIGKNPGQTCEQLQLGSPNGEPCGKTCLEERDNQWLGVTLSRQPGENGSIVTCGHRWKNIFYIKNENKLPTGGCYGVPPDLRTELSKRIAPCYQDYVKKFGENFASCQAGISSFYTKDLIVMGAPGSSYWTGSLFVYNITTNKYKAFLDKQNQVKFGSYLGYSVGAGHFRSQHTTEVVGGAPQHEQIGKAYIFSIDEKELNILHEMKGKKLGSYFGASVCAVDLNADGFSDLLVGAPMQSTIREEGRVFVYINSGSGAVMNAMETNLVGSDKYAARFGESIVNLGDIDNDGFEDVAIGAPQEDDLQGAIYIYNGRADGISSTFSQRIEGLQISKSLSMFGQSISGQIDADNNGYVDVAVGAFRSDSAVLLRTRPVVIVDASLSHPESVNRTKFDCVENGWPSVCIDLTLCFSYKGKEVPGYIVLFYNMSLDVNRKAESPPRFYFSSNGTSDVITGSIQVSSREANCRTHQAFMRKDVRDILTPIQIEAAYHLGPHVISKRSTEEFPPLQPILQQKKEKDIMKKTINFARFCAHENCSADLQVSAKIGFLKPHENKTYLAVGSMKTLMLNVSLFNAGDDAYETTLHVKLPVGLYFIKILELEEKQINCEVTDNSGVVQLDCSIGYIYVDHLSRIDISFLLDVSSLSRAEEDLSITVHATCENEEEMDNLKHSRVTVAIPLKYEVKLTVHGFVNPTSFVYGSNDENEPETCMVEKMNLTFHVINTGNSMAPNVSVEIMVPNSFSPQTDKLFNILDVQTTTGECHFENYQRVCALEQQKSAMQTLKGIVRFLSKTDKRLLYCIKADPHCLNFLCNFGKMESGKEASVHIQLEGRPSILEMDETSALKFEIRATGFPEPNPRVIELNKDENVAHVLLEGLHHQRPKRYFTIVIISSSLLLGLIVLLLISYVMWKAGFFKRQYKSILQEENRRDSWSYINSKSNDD
T1 sequence (P05556 21-798): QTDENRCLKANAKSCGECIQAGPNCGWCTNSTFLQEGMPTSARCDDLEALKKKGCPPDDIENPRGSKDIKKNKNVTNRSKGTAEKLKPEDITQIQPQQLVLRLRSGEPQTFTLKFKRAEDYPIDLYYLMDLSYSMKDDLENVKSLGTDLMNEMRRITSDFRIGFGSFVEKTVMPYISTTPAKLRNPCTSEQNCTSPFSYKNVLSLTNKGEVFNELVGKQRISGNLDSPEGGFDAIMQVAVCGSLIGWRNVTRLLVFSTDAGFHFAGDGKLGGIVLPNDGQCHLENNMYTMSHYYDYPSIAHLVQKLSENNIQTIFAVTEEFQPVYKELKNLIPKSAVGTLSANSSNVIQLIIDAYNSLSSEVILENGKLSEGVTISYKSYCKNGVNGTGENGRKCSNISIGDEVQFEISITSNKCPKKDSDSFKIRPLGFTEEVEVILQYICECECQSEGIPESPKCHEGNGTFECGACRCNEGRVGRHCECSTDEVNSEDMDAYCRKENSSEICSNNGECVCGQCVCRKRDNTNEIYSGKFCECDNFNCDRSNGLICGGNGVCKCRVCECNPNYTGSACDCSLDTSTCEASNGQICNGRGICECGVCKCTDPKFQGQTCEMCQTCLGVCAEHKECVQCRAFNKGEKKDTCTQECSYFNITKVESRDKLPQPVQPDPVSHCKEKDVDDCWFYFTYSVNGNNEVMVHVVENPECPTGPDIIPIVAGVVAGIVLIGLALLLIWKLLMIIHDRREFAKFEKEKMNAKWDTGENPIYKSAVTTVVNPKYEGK

inhibition at 100 µM	Compound
100%	CCCC[C@@H](C(=O)N[C@@H](CC(=O)O)c1ccc2c(c1)OCO2)N1CCN(Cc2cccs2)C1=O [(3S)-3-(1,3-benzodioxol-5-yl)-3-({(2S)-2-[2-oxo-3-(2-thienylmethyl)-1-imidazolidinyl]hexanoyl}amino)propanoic acid]

same assay, conditions: Table 2; Ramos cell adhesion to CS1-conjugated ovalbumin, 30 minutes at 37° C.

IC50	Compound
150 nM	CCCC[C@@H](C(=O)N[C@@H](CC(=O)O)c1ccc2c(c1)OCO2)N1CCN(Cc2cccs2)C1=O [(3S)-3-(1,3-benzodioxol-5-yl)-3-({(2S)-2-[2-oxo-3-(2-thienylmethyl)-1-imidazolidinyl]hexanoyl}amino)propanoic acid]

same assay, conditions: Table 3; Ramos cell adhesion to CS1-conjugated ovalbumin, 30 minutes at 37° C.

IC50	Compound
1500 nM	CCCC[C@@H](C(=O)N[C@@H](CC(=O)O)c1ccc2c(c1)OCO2)N1CC(=O)N(Cc2cccs2)c2ccccc2C1=O [(3S)-3-(1,3-benzodioxol-5-yl)-3-({(2S)-2-[2,5-dioxo-1-(2-thiophenylmethyl)-1,2,3,5-tetrahydro-4H-1,4-benzodiazepin-4-yl]hexanoyl}amino)propanoic acid]
550 nM	CCCC[C@@H](C(=O)N[C@@H](CC(=O)O)c1ccc2c(c1)OCO2)n1cccc(C(=O)c2ccccc2)c1=O [(3S)-3-(1,3-benzodioxol-5-yl)-3-({(2S)-2-[2-oxo-3-(phenylcarbonyl)-1(2H)-pyridinyl]hexanoyl}amino)propanoic acid]
4 nM	CCCC[C@@H](C(=O)N[C@@H](CC(=O)O)c1ccc2c(c1)OCO2)n1cccc(Cc2ccccc2)c1=O [(3S)-3-(1,3-benzodioxol-5-yl)-3-({(2S)-2-[2-oxo-3-(phenylmethyl)-1(2H)-pyridinyl]hexanoyl}amino)propanoic acid]
6000 nM	CCCC[C@@H](C(=O)N[C@@H](CC(=O)O)c1ccc2c(c1)OCO2)N1CC(=O)N(Cc2cccs2)[C@@H](Cc2ccccc2)C1=O [(3S)-3-(1,3-benzodioxol-5-yl)-3-({(2S)-2-[(3S)-2,5-dioxo-3-(phenylmethyl)-4-(2-thiophenylmethyl)tetrahydro-1(2H)-pyrazinyl]hexanoyl}amino)propanoic acid]

same assay, conditions: Table 4; Ramos cell adhesion to CS1-conjugated ovalbumin, 30 minutes at 37° C.

IC50	Compound
30 nM	CCCCC(C(=O)N[C@@H](CC(=O)O)c1ccc2c(c1)OCO2)n1cccc(Cc2ccccc2)c1=O (stereo partly drawn) [(3S)-3-(1,3-benzodioxol-5-yl)-3-{[2-(3-benzyl-2-oxopyridin-1(2H)-yl)hexanoyl]amino}propanoic acid]
2000 nM	CCCC[C@H](C(=O)N[C@@H](CC(=O)O)c1ccc2c(c1)OCO2)n1cc(C)c(O)c(Cc2ccccc2)c1=O [(3S)-3-(1,3-benzodioxol-5-yl)-3-{[(2R)-2-(3-benzyl-4-hydroxy-5-methyl-2-oxopyridin-1(2H)-yl)hexanoyl]amino}propanoic acid]
200 nM	CCCC[C@@H](C(=O)N[C@@H](CC(=O)O)c1ccc2c(c1)OCO2)n1cc(C)c(O)c(Cc2ccccc2)c1=O [(3S)-3-(1,3-benzodioxol-5-yl)-3-{[(2S)-2-(3-benzyl-4-hydroxy-5-methyl-2-oxopyridin-1(2H)-yl)hexanoyl]amino}propanoic acid]
10 nM	CCCCC(C(=O)N[C@@H](CC(=O)O)c1ccc2ccn(C)c2c1)n1cc(C)cc(Cc2ccccc2)c1=O (stereo partly drawn) [(3S)-3-(1-methyl-1H-indol-6-yl)-3-({2-[5-methyl-2-oxo-3-(phenylmethyl)-1(2H)-pyridinyl]hexanoyl}amino)propanoic acid]
63 nM	CCCCC(C(=O)N[C@@H](CC(=O)O)c1ccc2c(c1)CCC2)n1cc(C)cc(Cc2ccccc2)c1=O (stereo partly drawn) [(3S)-3-(2,3-dihydro-1H-inden-5-yl)-3-({2-[5-methyl-2-oxo-3-(phenylmethyl)-1(2H)-pyridinyl]hexanoyl}amino)propanoic acid]
283 nM	CCCCC(C(=O)N[C@@H](CC(=O)O)c1ccc2c(c1)CCC2)n1cc(C)cc(Cc2ccc3ccccc3c2)c1=O (stereo partly drawn) [(3S)-3-(2,3-dihydro-1H-inden-5-yl)-3-({2-[5-methyl-3-(2-naphthalenylmethyl)-2-oxo-1(2H)-pyridinyl]hexanoyl}amino)propanoic acid]
13 nM	CCCCC(C(=O)N[C@@H](CC(=O)O)c1cccc(F)c1)n1cc(C)cc(Cc2ccccc2)c1=O (stereo partly drawn) [(3S)-3-(3-fluorophenyl)-3-({2-[5-methyl-2-oxo-3-(phenylmethyl)-1(2H)-pyridinyl]hexanoyl}amino)propanoic acid]
